This passage reports IC50 results from patent publication US7786137B2, “Bicyclic derivatives as modulators of ion channels” (Vertex Pharmaceuticals Incorporated, priority 2005, dated 2010).

What is called IC50 is the concentration that gives 50% inhibition.

NaV1.3, sequence (Q9NY46 whole entry): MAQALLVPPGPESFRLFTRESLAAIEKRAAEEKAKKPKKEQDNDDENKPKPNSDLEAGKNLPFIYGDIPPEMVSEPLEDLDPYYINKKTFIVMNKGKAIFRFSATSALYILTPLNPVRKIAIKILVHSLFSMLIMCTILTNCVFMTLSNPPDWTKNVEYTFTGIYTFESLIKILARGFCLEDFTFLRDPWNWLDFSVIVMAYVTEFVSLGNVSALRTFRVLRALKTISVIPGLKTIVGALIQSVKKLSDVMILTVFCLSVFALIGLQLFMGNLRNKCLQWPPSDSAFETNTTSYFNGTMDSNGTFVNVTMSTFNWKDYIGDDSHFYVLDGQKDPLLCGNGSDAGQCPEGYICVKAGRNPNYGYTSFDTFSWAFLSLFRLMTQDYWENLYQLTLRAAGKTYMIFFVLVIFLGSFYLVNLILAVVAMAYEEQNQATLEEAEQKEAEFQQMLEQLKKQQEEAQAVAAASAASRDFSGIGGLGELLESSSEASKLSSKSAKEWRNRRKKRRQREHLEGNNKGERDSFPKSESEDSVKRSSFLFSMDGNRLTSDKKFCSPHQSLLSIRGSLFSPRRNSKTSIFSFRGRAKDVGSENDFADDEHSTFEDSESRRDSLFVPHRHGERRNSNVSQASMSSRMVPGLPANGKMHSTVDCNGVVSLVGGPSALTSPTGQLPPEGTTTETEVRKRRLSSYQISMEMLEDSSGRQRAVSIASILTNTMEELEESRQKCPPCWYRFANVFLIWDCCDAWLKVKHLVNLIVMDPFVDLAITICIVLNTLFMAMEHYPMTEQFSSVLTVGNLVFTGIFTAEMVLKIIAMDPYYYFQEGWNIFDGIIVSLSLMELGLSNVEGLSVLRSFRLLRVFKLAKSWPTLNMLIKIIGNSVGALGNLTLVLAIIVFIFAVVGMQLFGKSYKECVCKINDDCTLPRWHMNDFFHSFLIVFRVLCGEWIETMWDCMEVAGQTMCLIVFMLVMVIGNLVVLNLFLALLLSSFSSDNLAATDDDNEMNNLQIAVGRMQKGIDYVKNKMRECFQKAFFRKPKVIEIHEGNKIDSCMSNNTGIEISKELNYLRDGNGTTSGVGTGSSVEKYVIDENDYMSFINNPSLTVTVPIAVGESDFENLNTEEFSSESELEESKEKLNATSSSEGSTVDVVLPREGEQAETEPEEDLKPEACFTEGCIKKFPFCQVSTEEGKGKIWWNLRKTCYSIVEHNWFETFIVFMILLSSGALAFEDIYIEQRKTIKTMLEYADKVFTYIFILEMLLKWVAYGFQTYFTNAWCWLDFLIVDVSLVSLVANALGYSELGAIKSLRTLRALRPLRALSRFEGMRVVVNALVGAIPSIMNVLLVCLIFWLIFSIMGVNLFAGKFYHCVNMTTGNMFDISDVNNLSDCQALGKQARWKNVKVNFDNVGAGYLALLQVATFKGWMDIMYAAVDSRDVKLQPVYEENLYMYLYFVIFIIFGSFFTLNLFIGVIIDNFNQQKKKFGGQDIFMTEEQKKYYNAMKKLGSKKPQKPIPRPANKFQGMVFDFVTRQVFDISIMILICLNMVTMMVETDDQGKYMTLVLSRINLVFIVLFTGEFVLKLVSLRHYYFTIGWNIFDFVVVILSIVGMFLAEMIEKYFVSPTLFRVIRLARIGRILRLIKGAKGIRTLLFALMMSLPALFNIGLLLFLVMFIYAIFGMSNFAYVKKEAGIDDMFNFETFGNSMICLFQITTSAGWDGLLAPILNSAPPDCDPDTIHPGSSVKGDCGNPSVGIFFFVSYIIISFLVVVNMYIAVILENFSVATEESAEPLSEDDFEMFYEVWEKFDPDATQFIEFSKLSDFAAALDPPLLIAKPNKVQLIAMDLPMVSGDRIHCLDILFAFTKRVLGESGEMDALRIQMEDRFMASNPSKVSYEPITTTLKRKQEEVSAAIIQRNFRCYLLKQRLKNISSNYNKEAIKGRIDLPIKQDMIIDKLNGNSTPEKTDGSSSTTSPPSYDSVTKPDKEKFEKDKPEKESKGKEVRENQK

The target in the test is NaV1.3 (Homo sapiens, UniProt Q9NY46). Put plainly: VIPR optical membrane potential assay, NaV1.3 inhibition. The test is classed as cell-based. More on the design: expressed in transfected cells; host or cells: HEK293. The settings on record: activity against NaV 1.3 channel. The procedure:
Antagonist properties of test compounds were assessed as follows. Cells expressing the NaV of interest were placed into microtiter plates. After an incubation period, the cells were stained with fluorescent dyes sensitive to the transmembrane potential. The test compounds were added to the microtiter plate. The cells were stimulated with either a chemical or electrical means to evoke a NaV dependent membrane potential change from unblocked channels, which was detected and measured with trans-membrane potential-sensitive dyes. Antagonists were detected as a decreased membrane potential response to the stimulus.
The following is an example of how NaV1.3 inhibition activity is measured using the optical membrane potential method#2. Other subtypes are performed in an analogous mode in a cell line expressing the NaV of interest.
HEK293 cells stably expressing NaV1.3 are plated into 96-well microtiter plates. After an appropriate incubation period, the cells are stained with the voltage sensitive dyes CC2-DMPE/DiSBAC2(3) as follows.
2× CC2-DMPE=20 μM CC2-DMPE: 10 mM CC2-DMPE is vortexed with an equivalent volume of 10% pluronic, followed by vortexing in required amount of HBSS containing 10 mM HEPES. Each cell plate will require 5 mL of 2× CC2-DMPE. 50 μL of 2× CC2-DMPE is to wells containing washed cells, resulting in a 10 μM final staining concentration. The cells are stained for 30 minutes in the dark at RT.
2× DISBAC2(3) with ABSC1=6 μM DISBAC2(3) and 1 mM ABSC1: The required amount of 10 mM DISBAC2(3) is added to a 50 ml conical tube and mixed with 1 μL 10% pluronic for each mL of solution to be made and vortexed together. Then HBSS/HEPES is added to make up 2× solution. Finally, the ABSC1 is added.
The 2× DiSBAC2(3) solution can be used to solvate compound plates. Note that compound plates are made at 2× drug concentration. Wash stained plate again, leaving residual volume of 50 μL. Add 50 μL/well of the 2× DiSBAC2(3) w/ABSC1. Stain for 30 minutes in the dark at RT.
The instrument comprises a microtiter plate handler, an optical system for exciting the coumarin dye while simultaneously recording the coumarin and oxonol emissions, a waveform generator, a current- or voltage-controlled amplifier, and a device for inserting electrodes in well. Under integrated computer control, this instrument passes user-programmed electrical stimulus protocols to cells within the wells of the microfilter plate.
Insert or use electrodes into each well to be assayed.
Use the current-controlled amplifier to deliver stimulation wave pulses for 3 s. Two seconds of pre-stimulus recording are performed to obtain the un-stimulated intensities. Five seconds of post-stimulation recording are performed to examine the relaxation to the resting state.
Data are analyzed and reported as normalized ratios of background-subtracted emission intensities measured in the 460 nm and 580 nm channels. Background intensities are then subtracted from each assay channel. Background intensities are obtained by measuring the emission intensities during the same time periods from identically treated assay wells in which there are no cells. The response as a function of time is then reported as the ratios obtained using the following formula: […]
The data is further reduced by calculating the initial (Ri) and final (Rf) ratios. These are the average ratio values during part or all of the pre-stimulation period, and during sample points during the stimulation period. The response to the stimulus ? =Rf/Ri is then calculated.
Control responses are obtained by performing assays in the presence of a compound with the desired properties (positive control), such as tetracaine, and in the absence of pharmacological agents (negative control). Responses to the negative (N) and positive (P) controls are calculated as above. The compound antagonist activity A is defined as:
[formula] where R is the ratio response of the test compound.
Regarding `Cc1ccc(OCC(=O)N2CCc3cc(S(=O)(=O)Nc4nccs4)ccc32)c(C)c1` [Compound 60], the IC50 was less than 2000 nM. Under `O=C(CNc1cc(F)ccc1F)N1CCc2cc(S(=O)(=O)Nc3nccs3)ccc21` [Compound 61] stands less than 2000 nM; under `CC(Oc1cccc(Cl)c1)C(=O)N1Cc2ccc(S(=O)(=O)Nc3nccs3)cc2C1` (centres unmarked) [Compound 62], less than 2000 nM.

As for `O=C(Cc1ccc(C(F)(F)F)cc1)N1CCc2cc(S(=O)(=O)Nc3nccs3)ccc21` [Compound 63], the IC50 is less than 2000 nM. Under `Cc1ccc2c(c1)CCCN2CC(=O)N1CCc2cc(S(=O)(=O)Nc3nccs3)ccc21` [Compound 64] stands 2000 to 5000 nM. `O=S(=O)(Nc1nccs1)c1ccc2c(c1)CCN2CCNc1nc2ccccc2[nH]1` [Compound 66] displayed an IC50 greater than 5000 nM. Take `O=C(COc1cccc(Cl)c1Cl)N1CCc2cc(S(=O)(=O)Nc3nccs3)ccc21` [Compound 67]: the 50% inhibitory concentration (IC50) was less than 2000 nM. `O=C(CNc1ccc(C(F)(F)F)cc1)N1CCc2cc(S(=O)(=O)Nc3nccs3)ccc21` [Compound 68] yielded an IC50 of 2000 to 5000 nM. As for `O=C(Cn1ccc2cccc(Cl)c21)N1CCc2ccc(S(=O)(=O)Nc3nccs3)cc2C1` [Compound 69], the IC50 is greater than 5000 nM. The same measure for `O=C(c1cc(F)ccc1F)N1CCCc2cc(S(=O)(=O)Nc3nccs3)ccc21` [Compound 70]: greater than 5000 nM; for `O=C(COc1ccnc2c(C(F)(F)F)cccc12)N1CCc2cc(S(=O)(=O)Nc3ncns3)ccc21` [Compound 71]: less than 2000 nM. The same measure for `O=C(COc1ccccc1)N1CCCc2cc(S(=O)(=O)Nc3ncns3)ccc21` [Compound 72]: greater than 5000 nM; for `O=C(c1ccc(F)cc1F)N1CCc2ccc(S(=O)(=O)Nc3nccs3)cc2C1` [Compound 73]: greater than 5000 nM; for `O=C(c1cc(F)ccc1F)N1CCc2ccc(S(=O)(=O)Nc3nccs3)cc2C1` [Compound 74]: greater than 5000 nM.

For the compound `CC1CCCN(CC(=O)N2CCc3cc(S(=O)(=O)Nc4nccs4)ccc32)C1` (centres unmarked) [Compound 75], the IC50 is greater than 5000 nM. The same measure for `O=C(c1c(F)cc(F)cc1F)N1CCCc2cc(S(=O)(=O)Nc3nccs3)ccc21` [Compound 76]: greater than 5000 nM; for `Cc1ccc(OCC(=O)N2CCc3cc(S(=O)(=O)Nc4nccs4)ccc32)cc1C` [Compound 79]: less than 2000 nM; for `COc1ccc(OC(=O)N2CCc3cc(S(=O)(=O)Nc4nccs4)ccc32)cc1` [Compound 80]: greater than 5000 nM.

With `Cc1ccc(C(=O)N2CCc3cc(S(=O)(=O)Nc4nccs4)ccc32)cc1Cl` [Compound 82], the IC50 was less than 2000 nM. The same measure for `COc1ccc(F)cc1C(=O)N1CCc2cc(S(=O)(=O)Nc3nccs3)ccc21` [Compound 83]: 2000 to 5000 nM; for `O=C(COc1ccc(OC(F)(F)F)cc1)N1Cc2ccc(S(=O)(=O)Nc3nccs3)cc2C1` [Compound 84]: less than 2000 nM. The same measure for `CC1CN(CC(=O)N2CCc3cc(S(=O)(=O)Nc4nccs4)ccc32)CC(C)O1` (centres unmarked) [Compound 85]: greater than 5000 nM; for `O=C(c1cccc(Cl)c1)n1ccc2cc(S(=O)(=O)Nc3nccs3)ccc21` [Compound 86]: less than 2000 nM.

Turning to `C[C@H](C(=O)N1CCc2cc(S(=O)(=O)Nc3nccs3)ccc21)n1ccc2ccccc21` [Compound 87], the IC50 was less than 2000 nM. `O=C(c1ccc(Cl)c(Cl)c1)N1CCc2cc(S(=O)(=O)Nc3ncns3)ccc21` [Compound 89] came in with a half-maximal inhibitory concentration (IC50) of less than 2000 nM. Under `O=C(c1ccc(Cl)c(Cl)c1)N1CCc2cc(S(=O)(=O)Nc3nccs3)ccc21` [Compound 90] stands less than 2000 nM. The same measure for `CC(Oc1cccc(Cl)c1)C(=O)N1CCc2cc(S(=O)(=O)Nc3nccs3)ccc21` (centres unmarked) [Compound 91]: less than 2000 nM.

For the compound `C[C@H](C(=O)N1CCc2cc(S(=O)(=O)Nc3ncns3)ccc21)n1ccc2c(F)cccc21` [Compound 93], the IC50 is less than 2000 nM.

Take `C[C@H](C(=O)N1Cc2ccc(S(=O)(=O)Nc3ncns3)cc2C1)n1ccc2c(F)cccc21` [Compound 94]: the IC50 was less than 2000 nM. `O=C(c1ccc(F)cc1F)N1CCCc2cc(S(=O)(=O)Nc3nccs3)ccc21` [Compound 95]: the concentration for half-maximal inhibition (IC50) was greater than 5000 nM.

`O=C(c1ccccc1F)N1CCCc2cc(S(=O)(=O)Nc3nccs3)ccc21` [Compound 96] had an IC50 greater than 5000 nM. Consider `Cc1ccc(OCC(=O)N2CCc3cc(S(=O)(=O)Nc4ncns4)ccc32)cc1C` [Compound 97], for which the IC50 was less than 2000 nM. Under `Cc1nnc(NS(=O)(=O)c2ccc3c(c2)CN(C(=O)[C@@H](C)N2CCCc4cc(Cl)ccc42)C3)s1` [Compound 98] stands 2000 to 5000 nM. The same measure for `Cc1ccccc1CNCCN1CCc2cc(S(=O)(=O)Nc3nccs3)ccc21` [Compound 99]: greater than 5000 nM; for `COc1ccc(NCCN2CCc3cc(S(=O)(=O)Nc4nccs4)ccc32)cc1` [Compound 100]: greater than 5000 nM. Under `O=C(CN1CCCc2ccccc21)N1CCCc2cc(S(=O)(=O)Nc3nccs3)ccc21` [Compound 101] stands greater than 5000 nM. Regarding `O=C(ON1Cc2ccc(S(=O)(=O)Nc3nccs3)cc2C1)c1ccc(Cl)cc1` [Compound 102], the IC50 is less than 2000 nM. The same measure for `O=C(c1ccccc1Cl)n1ccc2cc(S(=O)(=O)Nc3nccs3)ccc21` [Compound 103]: 2000 to 5000 nM; for `O=C(CNC1CCCCC1)N1CCc2cc(S(=O)(=O)Nc3nccs3)ccc21` [Compound 104]: greater than 5000 nM. The same measure for `CCc1nnc(NS(=O)(=O)c2ccc3c(c2)CN(C(=O)[C@@H](C)n2ccc4c(F)cccc42)C3)s1` [Compound 105]: 2000 to 5000 nM; for `O=C(Oc1cccc(C(F)(F)F)c1)N1CCc2cc(S(=O)(=O)Nc3nccs3)ccc21` [Compound 106]: 2000 to 5000 nM; for `Cc1ccccc1CC(=O)N1CCc2cc(S(=O)(=O)Nc3nccs3)ccc21` [Compound 107]: less than 2000 nM.

With `COc1cc(NCC(=O)N2CCc3cc(S(=O)(=O)Nc4nccs4)ccc32)cc(OC)c1` [Compound 108], the IC50 is greater than 5000 nM. Under `O=C(c1cc(Cl)ccc1Cl)N1CCc2cc(S(=O)(=O)Nc3nccs3)ccc21` [Compound 109] stands less than 2000 nM; under `COc1ccc(F)cc1C(=O)n1ccc2cc(S(=O)(=O)Nc3nccs3)ccc21` [Compound 110], 2000 to 5000 nM; under `O=C(COc1cccc(Cl)c1)N1CCCc2cc(S(=O)(=O)Nc3nccs3)ccc21` [Compound 111], less than 2000 nM. The same measure for `O=C(COc1ccccc1)N1CCc2cc(S(=O)(=O)Nc3nccs3)ccc21` [Compound 112]: less than 2000 nM. Turning to `O=C(COc1ccccc1)N1CCCc2cc(S(=O)(=O)Nc3nccs3)ccc21` [Compound 113], the IC50 fell in the range of 2000 to 5000 nM.

In the case of `O=C(c1ccc(F)cc1)N1CCCc2cc(S(=O)(=O)Nc3nccs3)ccc21` [Compound 114], the IC50 is greater than 5000 nM. Under `O=C(COc1ccc(F)cc1)N1Cc2ccc(S(=O)(=O)Nc3nccs3)cc2C1` [Compound 115] stands less than 2000 nM. The same measure for `O=C(c1ccc(Cl)cc1Cl)N1CCc2cc(S(=O)(=O)Nc3nccs3)ccc21` [Compound 116]: less than 2000 nM; for `O=C(Oc1ccc(Cl)cc1)N1CCc2cc(S(=O)(=O)Nc3nccs3)ccc21` [Compound 117]: greater than 5000 nM; for `O=C(c1ccc(F)cc1F)N1CCc2cc(S(=O)(=O)Nc3ncns3)ccc21` [Compound 118]: greater than 5000 nM. The same measure for `O=C(c1ccc(F)cc1)N1CCc2ccc(S(=O)(=O)Nc3nccs3)cc2C1` [Compound 119]: greater than 5000 nM. Compound `O=C(CN1CCCc2cc(Cl)ccc21)N1Cc2ccc(S(=O)(=O)Nc3ncns3)cc2C1` [Compound 120] displayed an IC50 of less than 2000 nM. Under `O=C(CCn1ccc2cc(Cl)ccc21)N1CCc2ccc(S(=O)(=O)Nc3nccs3)cc2C1` [Compound 121] stands less than 2000 nM.
